Experimental data as given in patent publication US6982277B2, “P53 inhibitors and therapeutic use of the same” (The Board of Trutees of the University of Illinois, priority 1999, dated 2006).
“Also recorded” adds a separate entry of the source.

What was measured:
[1] = test system: p53; assay: suppression of p53-dependent transcriptional activation (lacZ, X-gal staining) in ConA cells treated with doxorubicin; format: cell-based, mouse; details: 0.2 μg/ml doxorubicin, 24 hours; test compounds about 10 to about 20 μM
[2] = test system: p53; assay: 14C-thymidine incorporation in tissues of gamma-irradiated mice (autoradiograms); format: in vivo, mouse; details: 10 Gy; single i.p. injection 2.2 mg/kg five minutes before irradiation
Description: Four-week-old p53-deficient mice and p53 wild-type (wt) mice were whole body gamma irradiated (10 Gy). Pifithrin-alpha was injected in one of the p53 wild-type animals five minutes before irradiation. ^14C-thymidine (10 mCi per animal) was injected intraperitoneally into each mouse 8 hours after irradiation. The mice were sacrificed 24 hours after irradiation and whole body sectioned (25 μm thick) using cryostatic microtome were prepared and exposed to X-ray film to monitor the distribution of ^14C in the tissue. FIG. 8 presents autoradiograms of representative sections. Arrows indicate ^14C-thymidine incorporation in the skin and intestine.

[3] = test system: tumor; assay: tumor volume in C57BL mice treated with cyclophosphamide; format: in vivo, mouse; details: CTX at days 0, 1, and 2, sixteen days
Description: FIG. 15 is a plot of tumor volume vs. days for C57BL mice treated with cyclophosphamide (CTX), with and without administration of PFT-β. The mice were treated with CTX at days 0, 1, and 2, and tumor volume was monitored for sixteen days.

[4] = test system: p53; assay: tests and experiments of FIGS. 1–15 repeated using PFT-β
Excerpt: The results of these tests are illustrated in attached FIGS. 1–16. These figures, in general, are based on tests performed on compounds of structural formulae (V) and (VI). In the following Figures, test results illustrated for compound (V), i.e., PFT-α, were repeated for compound (VI), i.e., PFT-β.
(§1) As previously stated, the tests and experiments set forth in FIGS. 1–15 using PFT-α were repeated using PFT-β.

[5] = test system: p53; assay: long-term survival and cancer development of mice after whole body radiation; format: in vivo; details: 30 survivors rescued from lethal gamma irradiation, seven months after irradiation
Description: Both wild-type (wt) mice and p53-deficient mice were irradiated. One group of the wild-type mice were treated with PFT-α. […] In contrast, fifteen untreated wild-type mice died within 100 days. The p53-deficient mice were unaffected for about 125 days, then all expired over the next 25–30 days.
Suppression of p53 typically results in the survival of cells that otherwise are eliminated by p53, which can increase the risk of new cancer development. For example, p53-deficient mice are extremely sensitive to radiation-induced tumorigenesis. […] Thus, temporary suppression of p53 activity is different from p53 deficiency in terms of cancer predisposition.

[6] = toxicity comparison (FIG. 16); details: compared with PFT-α
Description: Then, a p53 inhibitor was applied in a concentration of 1 μM to 20 μM to the test cells in the presence of the p53 activator. Cytotoxicity of the p53 inhibitors also was determined by standard assays. An estimation of antiapoptotic activity of the p53 inhibitor compounds was based on an ability to suppress apoptotic cell death in standard cell systems sensitive to p53-dependent apoptosis (i.e., mouse embryonic fibroblasts transformed with Ela+ras, line C8, described by S. W. Lowe et al., Cell, 74, pp. 957–968 (1993)). p53 dependence of the compound activity was analyzed by testing its effect on p53-deficient cells (i.e., radiosensitivity or drug sensitivity of p53−/− mouse embryonic fibroblasts transformed with Ela+ras, line A4, described by Lowe et al., 1993).
as §1

[7] = test system: p53; assay: survival of mice after whole-body gamma irradiation; format: in vivo, mouse; details: 2.2 mg/kg i.p. five minutes prior to irradiation
Description: In particular, FIG. 7 illustrates that pifithrin-alpha protects mice from radiation-induced death. In this test, two different strains of mice (C57BL and Balb(c)) were treated with lethal and sublethal doses of whole-body gamma radiation. A comparison was made between (i) untreated unirradiated mice, (ii) unirradiated mice that received a single intraperitoneal (i.p.) injection of PFT-α, (iii) untreated gamma-irradiated mice, and (iv) mice injected intraperitoneally with PFT-α immediately before gamma irradiation.
In the plots of FIG. 7, whole-body gamma irradiated mice (60 total) were divided into four groups. Ten mice from each group were injected i.p. with pifithrin-alpha (2.2 mg/kg) five minutes prior to irradiation. […] The experiments were repeated at least three times with 10 mice per each experimental subgroup.

[8] = test system: p53-deficient tumor xenografts; assay: therapy response of p53-deficient tumors in mice; format: in vivo, mouse; details: mouse, in vivo
Excerpt: The above-described tests using PFT-α and PFT-β illustrate the therapeutic use of temporary p53 inhibitors to reduce the side effects of radiation therapy or chemotherapy for human cancers that have lost functional p53.

[9] = test system: p53; assay: p53 protein in UV-irradiated ConA cells (immunoblotting, two-dimensional gel, nuclear and cytoplasmic fractions); format: cell-based, mouse
Description: PFT-α was added to the cells before UV treatment and total cell lysates were prepared 18 hours later.
FIG. 6(d) illustrates that PFT-α changes the nuclear and cytoplasmic distribution of p53. Nuclear and cytoplasmic fractions were isolated from UV-treated ConA cells 6 hours after UV irradiation. p53 and p21^waf1 proteins were detected by immunoblotting. […] In particular, results of a gel shift assay using cell lysates from either untreated or UV-irradiated ConA cells grown in medium containing PFT-α are shown. […] The decline in the amount of bound DNA is proportional to the overall decrease in p53 content in the presence of PFT-α.

[10] = toxicity of chemotherapeutics with p53 inhibitor; details: mouse, in vivo

Row | Structure (SMILES) | suppression of p53-dependent lacZ expression (X-gal) [1] | p53-mediated growth arrest in vivo (14C-thymidine incorporation) [2] | tumor growth (tumor volume) [3] | test results compared with PFT-α [4] | tumors or pathological lesions in survivors / tumor incidence in irradiated animals [5] | toxicity [6] | survival at higher, lethal doses of irradiation [7] | efficacy of chemo- or radiation therapy of p53 deficient mouse tumors [8] | nuclear and cytoplasmic distribution of p53 ([9]; 6 hours after UV irradiation) | phosphorylation / post-translational modifications of p53 ([9]; after DNA-damaging treatments) | toxicity of chemotherapeutics [10]
1 | N=c1sc2c(n1CC(=O)c1ccc(I)cc1)CCCC2 [86B10, 2-[2-imino-4,5,6,7-tetrahydro-1,3-benzothiazol-3(2H)-yl]-1-(4-iodophenyl)-1-ethanone] | similar, but weaker, p53-inhibition, effect than PFT-α | – | – | – | – | – | – | – | – | – | –
2 | Cc1ccc(-c2cn3c4c(sc3n2)CCCC4)cc1 [PFT-β, 2-(4-methylphenyl)-5,6,7,8-tetrahydrobenzo[d]imidazo[2,1-b]thiazole] | – | suppress p53-dependent radiation-induced growth arrest in rapidly proliferating mouse tissues | substantial decrease in tumor growth | essentially identical to test results using PFT-α; also recorded: essentially identical to the results from the tests using PFT-α | do not result in a high incidence of tumors in irradiated animals | substantially lower than the toxicity of PFT-α | rescue mice from lethal doses of gamma radiation using a single i.p. injection | do not reduce the efficacy of chemo- or radiation therapy of p53 deficient mouse tumors | reduce nuclear accumulation of p53 | do not effect either post-translational modifications of p53 or the DNA binding affinity of p53 | reduce the toxicity of chemotherapeutics
